The subject of assay [1] is Plasmodium falciparum. Briefly: Antimalarial activity against Plasmodium falciparum male gametocytes assessed as parasitic growth inhibition. Type of assay: functional, organism-based.
Assay [2] relates to Plasmodium falciparum. The assay is described as follows: Antimalarial activity against Plasmodium falciparum female gametocytes assessed as parasitic growth inhibition. Type of assay: functional, organism-based.
Assay [3] has as its system Plasmodium falciparum. Briefly: Antimalarial activity against Plasmodium falciparum male gametocytes assessed as parasitic growth inhibition by exflagellation assay. It counts as functional, organism-based.
For assay [4], the system named is Plasmodium falciparum. The assay is described as follows: Potency index, ratio of mefloquine IC50 to test compound IC50 for antimalarial activity against Plasmodium falciparum female gametocytes assessed as parasitic growth inhibition. Type of assay: functional.
Assay [5] concerns Plasmodium falciparum. Briefly: Potency index, ratio of artesunate IC50 to test compound IC50 for antimalarial activity against Plasmodium falciparum female gametocytes assessed as parasitic growth inhibition. It counts as functional.
In assay [6] the test system is Plasmodium falciparum. The assay is described as follows: Antimalarial activity against Chloroquine sensitive Plasmodium falciparum D6 assessed as parasitic growth inhibition. It counts as functional, organism-based.
The test system of assay [7] is Plasmodium falciparum. The assay is described as follows: Antimalarial activity against Chloroquine resistant Plasmodium falciparum W2 assessed as parasitic growth inhibition. It counts as functional, organism-based.
In assay [8] the test system is Plasmodium falciparum. Briefly: Potency index, ratio of chloroquine IC50 to test compound IC50 for antimalarial activity against Chloroquine resistant Plasmodium falciparum W2 assessed as parasitic growth inhibition. It counts as functional.
Assay [9] has as its system Plasmodium falciparum. The assay is described as follows: Potency index, ratio of chloroquine IC50 to test compound IC50 for antimalarial activity against Chloroquine sensitive Plasmodium falciparum D6 assessed as parasitic growth inhibition. It counts as functional.
Assay [10] relates to Plasmodium falciparum. Briefly: Antimalarial activity against Chloroquine sensitive Plasmodium falciparum RKL-2 assessed as parasitic growth inhibition measured after 36 to 40 hrs by Giemsa staining based assay. It counts as functional, organism-based.
Assay [11] concerns Plasmodium falciparum. The assay is described as follows: Antimalarial activity against Chloroquine sensitive Plasmodium falciparum RKL-9 assessed as parasitic growth inhibition measured after 36 to 40 hrs by Giemsa staining based assay. It counts as functional, organism-based.
The subject of assay [12] is Plasmodium falciparum. Briefly: Antimalarial activity against Chloroquine sensitive Plasmodium falciparum 3D7 assessed as parasitic growth inhibition measured after 24 hrs. Type of assay: functional, organism-based. To be noted: 3D7, 24 h.
Assay [13] relates to Plasmodium falciparum. Briefly: Antimalarial activity against mefloquine resistant Plasmodium falciparum F32 assessed as parasitic growth inhibition measured after 48 hrs. It counts as functional, organism-based. To be noted: F32, 48 h.
For assay [14], the system named is Plasmodium falciparum. Briefly: Antimalarial activity against mefloquine resistant Plasmodium falciparum Thai assessed as parasitic growth inhibition measured after 48 hrs. It counts as functional, organism-based.
Assay [15] concerns Plasmodium falciparum. The assay is described as follows: Antimalarial activity against mefloquine resistant Plasmodium falciparum FcB1 assessed as parasitic growth inhibition measured after 48 hrs. The note with it: FcB1, 48 h. It counts as functional, organism-based.
For assay [16], the system named is Plasmodium falciparum. Briefly: Antimalarial activity against mefloquine resistant Plasmodium falciparum K1 assessed as parasitic growth inhibition measured after 48 hrs. It counts as functional, organism-based. The note with it: K1, 48 h.
Assay [17] relates to Plasmodium falciparum. Briefly: Antimalarial activity against chloroquine resistant Plasmodium falciparum F32 assessed as parasitic growth inhibition measured after 48 hrs. It counts as functional, organism-based. The note with it: F32, 48 h.
The subject of assay [18] is Plasmodium falciparum. Briefly: Antimalarial activity against chloroquine resistant Plasmodium falciparum Thai assessed as parasitic growth inhibition measured after 48 hrs. Type of assay: functional, organism-based.
Assay [19] concerns Plasmodium falciparum. Briefly: Antimalarial activity against chloroquine resistant Plasmodium falciparum FcB1 assessed as parasitic growth inhibition measured after 48 hrs. It counts as functional, organism-based. To be noted: FcB1, 48 h.
For assay [20], the system named is Plasmodium falciparum. The assay is described as follows: Antimalarial activity against chloroquine resistant Plasmodium falciparum K1 assessed as parasitic growth inhibition measured after 48 hrs. Type of assay: functional, organism-based. The note with it: K1, 48 h.

pEC50, pIC50: −log10 of the molar value.

Regarding `C[C@H]1[C@@H](OC(=O)CCC(=O)O)O[C@@H]2C[C@@]3(C)CC[C@H]4[C@H](C)CC[C@@H]1[C@@]24OO3.Cc1cccc2c(C(O)C3CCCCN3)cc(C(F)(F)F)nc12` (racemic), the pIC50 is 5.34 in assay [1], 7.70 in assay [2] and 7.77 in [3]. Besides, the “Ratio IC50” value in [4] is on record as 280; in assay [5] it was 15.

Turning to `C[C@@H]1CC[C@H]2[C@@H](C)C(=O)O[C@@H]3O[C@@]4(C)CC[C@@H]1[C@]32OO4` [ARTEMISININ], the pIC50 in assay [1] is 4.90; in [2] it was 6.52; in [3], 6.92.

On to `Cc1cc(NCCCCNc2ccnc3cc(Cl)ccc23)nc(Nc2ccc(C(=O)N3CCOCC3)cc2)n1`, for which the pIC50 in assay [6] was 7.49; in assay [7] it was 7.48. Further, the “Ratio IC50” value in assay [8] and in assay [9] was 11 throughout.

`O=C1C(O)=C(NCCNc2ccnc3cc(Cl)ccc23)C(=O)c2ccccc21`: the values for the pIC50 in [10] and in [11] were 6.41 and 6.16, respectively.

Regarding `Cc1ccc(-c2nn(-c3nc4ccccc4s3)cc2/C=N\c2cccc(Cl)c2)cc1`, the pEC50 in [12] is 5.71.

Turning to `Cc1ccc(-c2nn(-c3nc4ccccc4s3)cc2/C=N\c2ccc(Cl)cc2)cc1`, the pEC50 in assay [12] was 5.70.

On to `CC1=C(CN2CCCCC2C(O)c2cc(C(F)(F)F)nc3c(C(F)(F)F)cccc23)[C@@H]2C[C@@H](C)C[C@@H]3C[C@]4(C)CC[C@@H](O1)[C@@]32OO4` (some centres undefined), for which the pIC50 in [13], in assay [14], in assay [15], in assay [16], in [17] and in assay [18] was 8.62 each time. Further, the pIC50 in assay [19] and in [20] was 8.62 in each case.

Consider `O=C1C(O)=C(N2CCN(c3ccnc4cc(Cl)ccc34)CC2)C(=O)c2ccccc21`, for which the pIC50 is 6.41 in [10] and 5.96 in assay [11].

On to `C[C@H]1C[C@@H]2C[C@@H]3CC[C@H]4OC(C(F)(F)F)=C(COCCOC(=O)CCC(=O)OC(c5cc(C(F)(F)F)nc6c(C(F)(F)F)cccc56)C5CCCCN5)[C@H](C1)[C@]24OO3` (some centres undefined), for which the pIC50 in [13], in [14], in assay [15], in assay [16], in [17] and in assay [18] was 8.62 throughout. The pIC50 in [19] and in assay [20] was 8.62 in each case.

What is called pIC50 is the IC50 on a negative log10 scale, so that one unit is a factor of ten. As a reminder, the pEC50 is the negative decadic logarithm of the EC50, by convention in mol/L.

For the origin of these results see ChEMBL document CHEMBL5329153, “Is structural hybridization invoking new dimensions for antimalarial drug discovery research?” (RSC Med Chem, 2023).
